Experimental data taken from patent publication US12377080B2, “Allosteric EGFR inhibitors and methods of use thereof” (Dana-Farber Cancer Institute, Inc., priority 2019, dated 2025).

Columns and labels:
[1] = tested on: EGFR L858R/T790M mutant Ba/F3 Cells; test: Ba/F3 cell proliferation (Cell Titer Glo) in combination with cetuximab; assay type: cell-based, murine; conditions: 72 hours
Source text: The EGFR mutant L858R, Del E746_A750, L858R/T790M, Del E746_A750/T790M, L858R/T790MIC797S, and DellT790MIC797S Ba/F3 cells have been previously described (Zhou, W., et al, Nature 462, 2009, 1070-1074). All cell lines were maintained in RPM I 1640 (Cellgro; Mediatech Inc., Herndon, CA) supplemented with 10% FBS, 100 units/mL penicillin, 100 units/mL streptomycin. The EGFR 1941 R mutation was introduced via site directed mutagenesis using the Quick Change Site-Directed Mutagenesis kit (Stratagene; La Jolla, CA) according to the manufacturer's instructions. All constructs were confirmed by DNA sequencing. The constructs were shuttled into the retroviral vector JP1540 using the Cre-recombination system (Agilent Technologies, Santa Clara, CA). Ba/F3 cells were then infected with retrovirus per standard protocols, as described previously (Zhou, et al, Nature 2009). Stable clones were obtained by selection in puromycin (2 μg/ml),
Growth and inhibition of growth was assessed by the Cell Titer Glo assay (Promega, Madison, WI) and was performed according to the manufacturer's instructions. The Cell Titer Glo assay is a luminescence-based method used to determine the number of viable cells based on quantitation of the ATP present, which is directly proportional to the amount of metabolically active cells present. Ba/F3 cells of different EGFR genotypes were exposed to compounds as a single agent or in combination with […] for 72 hours and the number of cells used per experiment was determined empirically as has been previously established (Zhou, et al., Nature 2009). All experimental points were set up in triplicates in 384-well plates and all experiments were repeated at least three times. […] The curves were fitted using a non-linear regression model with a sigmoidal dose response.

EGFR L858R = EGFR L858R (Homo sapiens (Human), UniProt P00533, L858R); test: HTRF-based EGFR biochemical assay (L858R); conditions: 100 μM ATP
Chain of EGFR L858R (P00533 25-1210 L858R): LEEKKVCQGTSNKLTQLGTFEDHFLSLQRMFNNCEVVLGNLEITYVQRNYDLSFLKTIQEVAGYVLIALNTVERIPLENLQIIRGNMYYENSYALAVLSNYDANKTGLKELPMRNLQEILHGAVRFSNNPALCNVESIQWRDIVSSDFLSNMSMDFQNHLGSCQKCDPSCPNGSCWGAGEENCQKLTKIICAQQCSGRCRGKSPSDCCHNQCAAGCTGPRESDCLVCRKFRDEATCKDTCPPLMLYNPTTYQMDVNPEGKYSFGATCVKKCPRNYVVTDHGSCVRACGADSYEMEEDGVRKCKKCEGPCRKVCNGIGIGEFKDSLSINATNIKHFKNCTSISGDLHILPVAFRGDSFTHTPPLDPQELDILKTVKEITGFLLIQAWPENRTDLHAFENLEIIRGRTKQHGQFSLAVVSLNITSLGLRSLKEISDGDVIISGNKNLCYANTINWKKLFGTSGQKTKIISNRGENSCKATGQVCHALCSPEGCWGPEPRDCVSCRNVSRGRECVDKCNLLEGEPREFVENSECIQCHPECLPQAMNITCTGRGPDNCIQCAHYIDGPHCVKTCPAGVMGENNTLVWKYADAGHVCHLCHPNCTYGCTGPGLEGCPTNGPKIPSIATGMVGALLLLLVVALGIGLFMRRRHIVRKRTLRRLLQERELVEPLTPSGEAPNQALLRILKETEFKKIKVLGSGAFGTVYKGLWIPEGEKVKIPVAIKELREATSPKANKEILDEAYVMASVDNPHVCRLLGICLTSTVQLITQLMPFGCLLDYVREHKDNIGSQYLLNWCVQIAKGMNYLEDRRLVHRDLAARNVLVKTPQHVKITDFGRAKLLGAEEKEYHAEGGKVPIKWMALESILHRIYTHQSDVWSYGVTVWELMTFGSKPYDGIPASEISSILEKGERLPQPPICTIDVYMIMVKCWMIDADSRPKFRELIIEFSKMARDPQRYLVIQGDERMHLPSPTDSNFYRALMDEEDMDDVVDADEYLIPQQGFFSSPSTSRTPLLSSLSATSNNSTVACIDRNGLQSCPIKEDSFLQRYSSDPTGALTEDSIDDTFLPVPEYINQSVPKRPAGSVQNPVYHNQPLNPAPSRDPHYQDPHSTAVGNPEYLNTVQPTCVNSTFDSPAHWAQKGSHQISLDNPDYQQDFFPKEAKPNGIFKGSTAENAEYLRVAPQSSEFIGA
Procedure: (§1) EGFR biochemical activity measurements were carried out using the homogeneous time-resolved fluorescence (HTRF) assay (Cisbio). Inhibitors and DMSO normalizations were first dispensed to empty black low-volume 384-well plates (Corning) with D300 digital liquid dispenser (HP). All reactions were carried out at room temperature and solutions were added to plates with a Multidrop Combi Reagent Dispenser (ThermoFisher). The reaction mixture (10 μL final volume) contained 1 μM tyrosine kinase peptide-biotin substrate and mutant EGFR in a reaction buffer (50 mM HEPES pH 7,0, 5 mM MgCl2,1 mM MnCl2, 0.01% BSA, 2 mM TCEP, 0.1 mM NaVO4). Enzyme concentrations were adjusted to accommodate varying kinase activities (L858R 0.1 nM, L858R!T790M 0,02 nM). Enzyme reaction solution (2× concentrations, 5 μL) was added to 384-well plates containing compounds and incubated for 30 mins. Enzyme reactions were initiated with the addition of […] of ATP to a final concentration of 100 μM and reacted for 20 mins. Reactions were quenched with the addition of 10 μL of phospho-tyrosine antibody-Europium(III) cryptate (1-to-180 volume ratio) and Streptavidin-XL665 (46.7 nM) in EDTA-containing detection buffer, then incubated at room temperature for 1 hour, and read with a PHERAstar plate reader (excitation =337 nm, emission =620 nm and 665 nm).

EGFR L858R/T790M = EGFR L858R/T790M (Homo sapiens (Human), UniProt P00533, L858R/T790M); test: HTRF-based EGFR biochemical assay (L858R/T790M); conditions: 100 μM ATP
Chain of EGFR L858R/T790M (P00533 25-1210 T790M/L858R): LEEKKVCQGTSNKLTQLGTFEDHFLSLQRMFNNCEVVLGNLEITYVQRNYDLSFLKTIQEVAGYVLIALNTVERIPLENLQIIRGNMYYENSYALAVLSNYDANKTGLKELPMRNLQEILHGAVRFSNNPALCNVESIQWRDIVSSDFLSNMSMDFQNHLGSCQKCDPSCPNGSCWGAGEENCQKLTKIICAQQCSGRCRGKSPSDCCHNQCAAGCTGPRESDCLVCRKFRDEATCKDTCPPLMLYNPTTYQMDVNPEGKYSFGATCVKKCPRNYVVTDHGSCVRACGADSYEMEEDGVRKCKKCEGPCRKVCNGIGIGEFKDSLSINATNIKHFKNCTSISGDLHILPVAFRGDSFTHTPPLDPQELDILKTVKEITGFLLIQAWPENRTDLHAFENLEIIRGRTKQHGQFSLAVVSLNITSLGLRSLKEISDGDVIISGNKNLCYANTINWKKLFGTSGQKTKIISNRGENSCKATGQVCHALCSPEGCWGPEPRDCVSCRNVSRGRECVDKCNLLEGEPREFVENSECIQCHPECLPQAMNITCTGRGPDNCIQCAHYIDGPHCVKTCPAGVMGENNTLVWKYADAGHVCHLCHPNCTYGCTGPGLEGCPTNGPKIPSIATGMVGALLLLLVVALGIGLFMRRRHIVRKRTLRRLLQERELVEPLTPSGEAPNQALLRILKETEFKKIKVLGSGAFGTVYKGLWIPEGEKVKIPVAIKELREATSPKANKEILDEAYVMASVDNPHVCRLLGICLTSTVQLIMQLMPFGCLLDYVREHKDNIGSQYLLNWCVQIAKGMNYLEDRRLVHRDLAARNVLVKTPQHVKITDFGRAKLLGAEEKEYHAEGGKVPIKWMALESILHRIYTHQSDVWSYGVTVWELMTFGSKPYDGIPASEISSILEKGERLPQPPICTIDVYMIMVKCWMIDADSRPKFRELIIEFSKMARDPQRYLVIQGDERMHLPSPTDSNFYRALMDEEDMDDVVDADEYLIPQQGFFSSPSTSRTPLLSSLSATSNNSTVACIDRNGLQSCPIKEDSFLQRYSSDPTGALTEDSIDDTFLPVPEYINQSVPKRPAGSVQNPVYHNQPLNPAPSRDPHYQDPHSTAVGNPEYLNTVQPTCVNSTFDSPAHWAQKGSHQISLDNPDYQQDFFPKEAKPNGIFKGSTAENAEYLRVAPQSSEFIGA
Procedure: as §1

Structure (SMILES) | IC50 [1] | IC50 (EGFR L858R) | IC50 (EGFR L858R/T790M)
O=C(Nc1ccccn1)C(c1cccc(F)c1)N1Cc2ncc(Br)cc2C1=O (centres unmarked) [Compound 3, 2-(3-bromo-5-oxo-5,7-dihydro-6H-pyrrolo[3,4-b]pyridin-6-yl)-2-(3-fluorophenyl)-N-(pyridin-2-yl)acetamide] | 2.37 µM | – | –
O=C(Nc1nccs1)C(c1cccc(F)c1)N1Cc2cnc(Br)cc2C1=O (centres unmarked) [Compound 1, 2-(6-bromo-1-oxo-1,3-dihydro-2H-pyrrolo[3,4-c]pyridin-2-yl)-2-(3-fluorophenyl)-N-(thiazol-2-yl)acetamide] | 5.48 µM | – | –
CN1CCN(c2ccc(-c3cnc4c(c3)C(=O)N(C(C(=O)Nc3nccs3)c3cccc(F)c3)C4)cn2)CC1 (centres unmarked) [Compound 8, 2-(3-fluorophenyl)-2-(3-(6-(4-methylpiperazin-1-yl)pyridin-3-yl)-5-oxo-5,7-dihydro-6H-pyrrolo[3,4-b]pyridin-6-yl)-N-(thiazol-2-yl)acetamide] | 0.2 µM | 0.02 µM | 0.001 µM
CN1CCC(c2ccc(-c3ccc4c(n3)C(=O)N(C(C(=O)Nc3nccs3)c3cccc(F)c3)C4)cc2)CC1 (centres unmarked) [Compound 13, 2-(3-fluorophenyl)-2-(2-(4-(1-methylpiperidin-4-yl)phenyl)-7-oxo-5,7-dihydro-6H-pyrrolo-[3,4-b]pyridin-6-yl)-N-(thiazol-2-yl)acetamide] | 0.02 µM | 0.007 µM | 0.001 µM
CN1CCC(c2ccc(-c3cnc4c(c3)C(=O)N(C(C(=O)Nc3ccccn3)c3cc(F)ccc3O)C4)cc2)CC1 (centres unmarked) [Compound 22, 2-(5-fluoro-2-hydroxyphenyl)-2-(3-(4-(1-methylpiperidin-4-yl)phenyl)-5-oxo-5,7-dihydro-6H-pyrrolo[3,4-b]pyridin-6-yl)-N-(pyridin-2-yl)acetamide] | 0.03 µM | 0.005 µM | 0.001 µM
O=C(Nc1nccs1)C(c1cccc(F)c1)N1Cc2ncc(Br)cc2C1=O (centres unmarked) [Compound 2, 2-(3-bromo-5-oxo-5,7-dihydro-6H-pyrrolo[3,4-b]pyridin-6-yl)-2-(3-fluorophenyl)-N-(thiazol-2-yl)acetamide] | 0.38 µM | – | –

More lines, now with the values ahead:

IC50 [1] | IC50 (EGFR L858R) | IC50 (EGFR L858R/T790M) | Structure (SMILES)
0.22 µM | 0.126 µM | 0.009 µM | CN1CCC(c2ccc(-c3cnc4c(c3)C(=O)N(C(C(=O)Nc3nccs3)c3cccc(F)c3)C4)cn2)CC1 (centres unmarked) [Compound 18, 2-(3-fluorophenyl)-2-(3-(6-(1-methylpiperidin-4-yl)pyridin-3-yl)-5-oxo-5,7-dihydro-6H-pyrrolo[3,4-b]pyridin-6-yl)-N-(thiazol-2-yl)acetamide]
0.14 µM | 0.036 µM | 0.007 µM | CN1CCC(c2ccc(-c3ccc4c(n3)C(=O)N(C(C(=O)Nc3nccs3)c3cccc(F)c3)C4)cn2)CC1 (centres unmarked) [Compound 17, 2-(3-fluorophenyl)-2-(2-(6-(1-methylpiperidin-4-yl)pyridin-3-yl)-7-oxo-5,7-dihydro-6H-pyrrolo[3,4-b]pyridin-6-yl)-N-(thiazol-2-yl)acetamide]
0.03 µM | 0.004 µM | 0.0007 µM | CN1CCC(c2ccc(-c3ccc4c(n3)C(=O)N(C(C(=O)Nc3nccs3)c3cccc(F)c3)C4)c(F)c2)CC1 (centres unmarked) [Compound 19, 2-(2-(2-fluoro-4-(1-methyl-piperidin-4-yl)phenyl)-7-oxo-5,7-dihydro-6H-pyrrolo[3,4-b]pyridin-6-yl)-2-(3-fluoro-phenyl)-N-(thiazol-2-yl)-acetamide]
1.76 µM | – | – | O=C(Nc1nccs1)C(c1cccc(F)c1)N1Cc2ccc(Br)nc2C1=O (centres unmarked) [Compound 4, 2-(2-bromo-7-oxo-5,7-dihydro-6H-pyrrolo[3,4-b]pyridin-6-yl)-2-(3-fluorophenyl)-N-(thiazol-2-yl)acetamide]
> 10 µM | – | – | O=C(Nc1ccccn1)C(c1cccc(F)c1)N1Cc2ccc(Br)nc2C1=O (centres unmarked) [Compound 5, 2-(2-bromo-7-oxo-5,7-dihydro-6H-pyrrolo[3,4-b]pyridin-6-yl)-2-(3-fluorophenyl)-N-(pyridin-2-yl)acetamide]
